Data: patent publication US11530244B2, “Cyclic polypeptides for PCSK9 inhibition” (priority 2018, dated 2022)
Starred links: 1 amine or outer side, 2 acyl side, 3 side chain; linkers in the order of their positions; H or OH if unused. Positions of bridges follow the written chain, without caps; N, C: chain ends. Non-standard residues stand in square brackets, D forms with d. Residues, ends and D or L forms follow the SMILES beside them. NMeTrp(1-Me) = CN[C@@H](Cc1cn(C)c2ccccc12)C(=O)O; Trp(5-F) = N[C@@H](Cc1c[nH]c2ccc(F)cc12)C(=O)O; Trp(1-Me) = Cn1cc(C[C@H](N)C(=O)O)c2ccccc21; mXylylene(5-F) = Fc1cc(C[*:1])cc(C[*:2])c1; X4 = O=C(CCSCc1cccc(CSCCN[*:1])c1)[*:2]; 2Nal = N[C@@H](Cc1ccc2ccccc2c1)C(=O)O; X23 = CC[C@@]1(C(=O)[*:2])CCCN1[*:1]; mXylylene = c1cc(C[*:1])cc(C[*:2])c1; NMeY = CN[C@@H](Cc1ccc(O)cc1)C(=O)O; NMeT = CN[C@H](C(=O)O)[C@@H](C)O; NMeL = CN[C@@H](CC(C)C)C(=O)O; dNMeL = CN[C@H](CC(C)C)C(=O)O; αMeP = C[C@@]1(C(=O)O)CCCN1; Nva = CCC[C@H](N)C(=O)O; Aib = CC(C)(N)C(=O)O; Mpa = O=C(O)CCS

Columns and labels:
[1] = molecular target: PCSK9 (Homo sapiens (Human), UniProt Q8NBP7); experiment: PCSK9 Alexa FRET Standard assay (displacement of AlexaFluor647 tagged cyclic peptide Reagent A); format: binding; details: PCSK9 Alexa FRET Standard assay, 0.5 nM PCSK9, 20 nM AF cyclic peptide Reagent A; read-out: IC50
Chain of PCSK9 (Q8NBP7 153-692): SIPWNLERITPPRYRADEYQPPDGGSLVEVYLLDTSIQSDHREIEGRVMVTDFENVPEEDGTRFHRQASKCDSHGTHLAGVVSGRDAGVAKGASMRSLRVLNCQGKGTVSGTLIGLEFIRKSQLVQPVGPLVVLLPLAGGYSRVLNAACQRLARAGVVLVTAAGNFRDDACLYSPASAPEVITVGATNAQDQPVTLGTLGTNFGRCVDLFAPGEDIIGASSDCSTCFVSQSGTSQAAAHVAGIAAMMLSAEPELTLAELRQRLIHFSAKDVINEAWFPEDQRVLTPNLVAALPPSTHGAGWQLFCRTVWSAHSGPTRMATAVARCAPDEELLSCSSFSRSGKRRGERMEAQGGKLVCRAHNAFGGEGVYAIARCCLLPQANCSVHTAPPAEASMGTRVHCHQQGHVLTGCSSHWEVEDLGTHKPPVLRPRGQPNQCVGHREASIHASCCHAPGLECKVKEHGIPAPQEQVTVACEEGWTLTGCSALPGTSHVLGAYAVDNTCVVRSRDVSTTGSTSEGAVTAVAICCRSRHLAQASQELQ
Summary of the method: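 TR-FRET displacement: 0.5 nM biotinylated PCSK9 with 1.25 nM Strep-Eu and 20 nM AlexaFluor-tagged cyclic peptide (final) in 50 mM HEPES pH 7.4, 0.15 M NaCl, 5 mM CaCl2, 0.01% BSA, 0.01% P20, ≥2 h at room temperature. IC50 from sigmoidal fit, converted to Ki via peptide KD; falling Eu counts flagged false positives.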

[2] = molecular target: human PCSK9 / human LDLR EGFa domain interaction (Homo sapiens (Human), UniProt Q8NBP7); experiment: TR-FRET assay of inhibition of the PCSK9-LDLR protein-protein interaction; format: binding; details: TR-FRET, 20 nM human PCSK9, 20 nM human LDLR EGFa domain, 2 hours room temperature; read-out: IC50
Chain of human PCSK9 / human LDLR EGFa domain interaction (Q8NBP7 153-692): as above
Chain of human PCSK9 / human LDLR EGFa domain interaction (Q8NBP7 31-152 partner): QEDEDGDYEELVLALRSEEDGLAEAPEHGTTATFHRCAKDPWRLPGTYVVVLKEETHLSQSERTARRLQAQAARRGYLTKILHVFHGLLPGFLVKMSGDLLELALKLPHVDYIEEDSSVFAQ
Summary of the method: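 Biotinylated PCSK9 (20 nM) and His-tagged LDLR EGFa domain (20 nM) were incubated 2 h at room temperature with 5 nM Ulight-streptavidin and 5 nM Eu-anti-His in HEPES/NaCl/CaCl2 buffer with 0.01% BSA and 0.01% P20. TR-FRET was read; half-maximal inhibitory concentrations came from 4-parameter dose-response fits.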

IC50 [1] | IC50 [2] | SMILES
1000 to 12100 nM | 21000 to 50000 nM | C[C@H]1NC(=O)[C@H](CCCCN)NC(=O)CCSCc2cc(F)cc(c2)CSC[C@@H](C(N)=O)NC(=O)[C@]2(C)CCCN2C(=O)[C@H](Cc2ccc(O)cc2)NC(=O)[C@H]([C@@H](C)O)NC(=O)[C@@H]2CCCN2C(=O)[C@H](Cc2c[nH]c3ccc(F)cc23)NC(=O)[C@H](Cc2c[nH]c3ccc(F)cc23)NC1=O [Compound 042] ([Mpa]K[dA][Trp(5-F)][Trp(5-F)]PTY[αMeP]C-NH2; linker 1-10 via mXylylene(5-F))
100 to 1000 nM | 100 to 1000 nM | C[C@@H](O)[C@@H]1NC(=O)[C@@H]2CCCN2C(=O)[C@H](Cc2c[nH]c3ccc(F)cc23)NC(=O)[C@H](Cc2c[nH]c3ccc(F)cc23)NC(=O)CNC(=O)[C@H](CCCCN)NC(=O)CCSCc2cc(F)cc(c2)CSC[C@@H](C(N)=O)NC(=O)[C@]2(C)CCCN2C(=O)[C@H](Cc2ccc(O)cc2)NC1=O [Compound 043] ([Mpa]KG[Trp(5-F)][Trp(5-F)]PTY[αMeP]C-NH2; linker 1-10 via mXylylene(5-F))
100 to 1000 nM | 100 to 1000 nM | C[C@H]1NC(=O)[C@H](CCCCN)NC(=O)CCSCc2cccc(c2)CSC[C@@H](C(N)=O)NC(=O)[C@]2(C)CCCN2C(=O)[C@H](Cc2ccc(O)cc2)NC(=O)[C@H]([C@@H](C)O)NC(=O)[C@@H]2CCCN2C(=O)[C@H](Cc2c[nH]c3ccc(F)cc23)NC(=O)[C@H](Cc2c[nH]c3ccc(F)cc23)NC1=O [Compound 044] ([Mpa]K[dA][Trp(5-F)][Trp(5-F)]PTY[αMeP]C-NH2; linker 1-10 via mXylylene)
1000 to 12100 nM | 1000 to 12100 nM | CC[C@@]12CCCN1C(=O)[C@H](Cc1ccc(O)cc1)NC(=O)[C@H]([C@@H](C)O)NC(=O)[C@@H]1CCCN1C(=O)[C@H](Cc1c[nH]c3ccc(F)cc13)NC(=O)[C@H](Cc1c[nH]c3ccc(F)cc13)NC(=O)CNC(=O)[C@H](CCCCN)NC(=O)CCSCc1cccc(c1)CSC[C@@H](C(N)=O)NC2=O [Compound 045] ([Mpa]KG[Trp(5-F)][Trp(5-F)]PTY[X23]C-NH2; linker 1-10 via mXylylene)
0.11 to 100 nM | 0.1 to 100 nM | CCC[C@@H]1NC(=O)CCSCc2cccc(c2)CSC[C@@H](C(N)=O)NC(=O)[C@@H]2CCCN2C(=O)[C@H](Cc2ccc(OC)cc2)NC(=O)[C@H]([C@@H](C)OC)N(C)C(=O)[C@@H]2CCCN2C(=O)[C@H](Cc2cn(C)c3ccccc23)NC(=O)[C@H](Cc2ccc3ccccc3c2)NC(=O)[C@@H](CC(C)C)N(C)C1=O [Compound 046] ([Mpa][Nva][dNMeL][2Nal][Trp(1-Me)]P[NMeT](Me)Y(Me)PC-NH2; linker 1-10 via mXylylene)

Further lines, the molecule ahead of its results:

SMILES | IC50 [1] | IC50 [2]
C[C@H]1NC(=O)[C@H](CCCCN)NC(=O)CCSCc2cccc(c2)CSC[C@@H](C(N)=O)NC(=O)[C@]2(C)CCCN2C(=O)[C@H](Cc2ccc(O)cc2)NC(=O)C(C)(C)NC(=O)[C@@H]2CCCN2C(=O)[C@H](Cc2c[nH]c3ccc(F)cc23)NC(=O)[C@H](Cc2c[nH]c3ccc(F)cc23)NC1=O [Compound 005] ([Mpa]K[dA][Trp(5-F)][Trp(5-F)]P[Aib]Y[αMeP]C-NH2; linker 1-10 via mXylylene) | 100 to 1000 nM | 0.1 to 100 nM
COc1ccc(C[C@@H]2NC(=O)[C@H]([C@@H](C)O)NC(=O)[C@]3(C)CCCN3C(=O)[C@H](Cc3c[nH]c4ccc(F)cc34)NC(=O)[C@H](Cc3c[nH]c4ccc(F)cc34)NC(=O)[C@@H](C)NC(=O)[C@H](CCCCN)NC(=O)CCSCc3cccc(c3)CSCCNC(=O)[C@]3(C)CCCN3C2=O)cc1 [Compound 025] (cyclo(K[dA][Trp(5-F)][Trp(5-F)][αMeP]TY(Me)[αMeP][X4])) | 100 to 1000 nM | 100 to 1000 nM
COc1ccc(C[C@@H]2NC(=O)CCSCc3cccc(c3)CSC[C@@H](C(N)=O)NC(=O)[C@]3(C)CCCN3C(=O)[C@H](Cc3ccc(OC)cc3)NC(=O)[C@H]([C@@H](C)OC)NC(=O)[C@H](CC(C)C)N(C)C(=O)[C@H](Cc3ccc(OC)cc3)NC(=O)[C@H](Cc3ccc(OC)cc3)N(C)C(=O)[C@@H](CC(C)C)NC2=O)cc1 [Compound 036] ([Mpa]Y(Me)[dL][NMeY](Me)Y(Me)[NMeL]T(Me)Y(Me)[αMeP]C-NH2; linker 1-10 via mXylylene) | 0.11 to 100 nM | 0.1 to 100 nM
CCC[C@@H]1NC(=O)CCSCc2cccc(c2)CSC[C@@H](C(N)=O)NC(=O)[C@@H]2CCCN2C(=O)[C@H](Cc2ccc(OC)cc2)NC(=O)[C@H]([C@@H](C)OC)NC(=O)[C@@H]2CCCN2C(=O)[C@H](Cc2cn(C)c3ccccc23)N(C)C(=O)[C@H](Cc2ccc3ccccc3c2)NC(=O)[C@@H](CC(C)C)N(C)C1=O [Compound 038] ([Mpa][Nva][dNMeL][2Nal][NMeTrp(1-Me)]PT(Me)Y(Me)PC-NH2; linker 1-10 via mXylylene) | 0.11 to 100 nM | 0.1 to 100 nM
